US4748274A, “4-hydroxy-4-(substituted alkenyl)cyclohexanecarboxylic acids” (Merrell Dow Pharmaceuticals Inc., priority 1986, dated 1988)
Values belong to the compound of their own block, whether it stands above or below them.

Columns and labels:
[1] = target: T1, leukotriene D4 (longitudinal muscle of guinea pig ileum) (Cavia porcellus, UniProt Q2NNR5); test: Antagonism of leukotriene D4 contraction, longitudinal muscle of guinea pig ileum; type: cell-based; conditions: LTD4 concentration-response, 15 min preincubation, 1 μM indomethacin, 37° C., Arunlakshana and Schild method; for Kb: read-out: G.P. ILEUM pA2 (LTD4) (converted)
T1 construct: The longitudinal muscle was then carefully dissected from the circular muscle of the ileum; from tissue; host or cells: guinea pig terminal ileum, longitudinal muscle segments
T1 sequence (Q2NNR5 1-340): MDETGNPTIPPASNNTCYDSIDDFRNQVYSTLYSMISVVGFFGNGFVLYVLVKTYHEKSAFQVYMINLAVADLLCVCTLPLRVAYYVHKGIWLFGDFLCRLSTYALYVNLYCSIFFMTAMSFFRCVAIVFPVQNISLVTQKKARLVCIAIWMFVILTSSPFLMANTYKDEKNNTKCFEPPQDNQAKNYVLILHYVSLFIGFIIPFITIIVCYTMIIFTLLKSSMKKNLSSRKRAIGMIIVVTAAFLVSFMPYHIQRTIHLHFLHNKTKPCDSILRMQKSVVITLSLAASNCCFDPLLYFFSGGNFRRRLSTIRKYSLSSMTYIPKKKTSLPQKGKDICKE
Protocol: Longitudinal Muscle of Guinea Pig Ileum
Male, Hartley-Duncan, guinea pigs were sacrificed by cervical dislocation. The terminal portion of the ileum was removed, rinsed, and placed in Burn's modified Tyrode's solution. The longitudinal muscle was then carefully dissected from the circular muscle of the ileum. The longitudinal muscle was cut into 1-2 cm. segments which were placed in a tissue bath containing oxygenated Burn's modified Tyrode's solution warmed to 37° C. A tension of 1.0 gram was then placed on each segment of muscle. After equilibration for 1 hour, 1 μM Indomethacin was added to each bath. After 5 minutes, each tissue segment was then exposed to a concentration of 60 nM leukotriene D4. This response was then considered to be the initial maximal contraction that each segment will produce. After washing the tissue several times, over a 1 hour period, 1 μM lndomethacin was again added to each bath. After a 5 minute period the test agent or vehicle was added to the bath. After 15 minutes, a concentration-response curve was generated using cumulatively increasing concentrations of leukotriene D4. The concentration-response was then compared to the initial maximum contraction. A test compound was considered active, if at concentrations up to 100 μM, it produces a significant shift to the right of the concentration-response relationship to leukotriene D4. The antagonist activity was quantitated in terms of a pA2 value calculated according to the method described by Arunlakshana and Schild, (Brit. J. Pharmac. Chemotherap. 14; 48, 1959).

[2] = target: T2, 3H-LTD4 specific receptor (guinea pig lung membranes) (Cavia porcellus, UniProt Q2NNR5); test: 3H-LTD4 specific receptor binding in guinea pig lung membranes; conditions: 3H-LTD4, 50 mM Tris-HCl pH 7.6, 37° C., 20-40 min; read-out: G.P. LUNG SPECIFIC BINDING IC50
T2 construct: from tissue; host or cells: guinea pig lung membranes
T2 sequence (Q2NNR5 1-340): T1 sequence (Q2NNR5 1-340)
Protocol: 3H-LTD4 - Specific Receptor Binding in Guinea Pig Lung Membranes
Male guinea pigs were sacrificed and the lungs were removed and placed in ice cold 50 mM Tris-HCl buffer, pH 7.4. The lungs were then homogenized with a Polytron homogenizer and the homogenate was centrifuged at 1000 g for 10 minutes at 4° C. The supernatant was then centrifuged at 30,000 g for 15 minutes at 4° C. to obtain the membrane pellet. This pellet was resuspended in 50 mM Tris-HCl to provide the working suspension of lung membranes. Binding assays were then carried out in 50 mM Tris-HCl at pH 7.6 and 37° C. using incubation periods of 20-40 min. Separation of bound ^3 H-LTD4 from free ^3 H-LTD4 were performed by rapid vacuum filtration through Whatman GF/B glass fiber filters using ice cold Tris-HCl buffer and three 4 ml washes. Filtration and washing were completed in less than 8 seconds. The radioactivity on the filters was then measured. Specific binding of ^3 H-LTD4 was defined as the binding of ^3 H-LTD4 in the absence of unlabelled LTD4 minus the binding of ^3 H-LTD4 in the presence of 2×10^-7 M unlabelled LTD4. Specific binding of ^3 H-LTD4 was 60-80% of total binding. […] In these tests increasing concentrations of the agent are used to block the ^3 H-LTD4 specific binding. The concentration that reduces the specific binding of ^3 H-LTD4 by 50% is termed the IC50.

[3] = system: leukotriene D4 (induced bronchoconstriction); test: In vivo leukotriene D4 antagonist activity in anesthetized guinea pigs, modified Konzett-Rossler preparation; parameters: species or system guinea pig; conditions: LTD4 50 or 100 ng/kg i.v.
Protocol: In Vivo Biological Activity
Compounds of the present invention were also tested for in vivo leukotriene D4 antagonist activity in anesthetized guinea pigs using a modified Konzett-Rossler preparation. Specifically, the guinea pigs were anesthetized with sodium pentobarbital and surgically prepared for artificial ventilation by a constant volume respirator. The inflation pressure produced by the respirator was measured for each inflation of the guinea pigs' lungs. Increases in inflation pressure above baseline are indicative of bronchoconstriction. After establishing a baseline inflation pressure, bronchoconstriction was induced by an intravenous challenge with 50 or 100 ng/kg leukotriene D4. This response was considered the initial response. After the inflation pressure returned to baseline, the guinea pig was treated with the desired dosage of test compound or vehicle, given intravenously (i.v.) or intraduodenally (i.d.), and rechallenged with leukotriene D at one minute [following i.v. administration]or 5 and 20 minutes [following i.d. administration]. This response was then compared to the initial response and the % inhibition of the response was determined. The results can be summarized as follows, with the inhibition values given for administration by the i.d. route being the greater of the two results obtained.

[4] = 1.0 mg/kg i.d., greater of results at 5 and 20 minutes

Kb [1]: 0.245 nM
IC50 [2]: 8700 nM
Compound: CCCCCCCCCCCCC/C=C\C(SCCC(=O)O)[C@]1(O)CC[C@H](C(=O)O)CC1 (relative stereo) [Example 10H, [1α,4β,4(Z)]-4-[1-[(2-CarbOxyethyl)thio]-2-hexadecenyl]-4-hydroxycyclohexanecarboxylic acid]

Compound: CCCCCCCCCCCCC/C=C\C(SCCCC(=O)O)[C@]1(O)CC[C@@H](C(=O)O)CC1 (relative stereo) [Example 10I, [1α,4α,4(Z)]-4-[1-[(3-carboxypropyl)thio]-2-hexadecenyl]-4-hydroxycyclohexanecarboxylic acid]
PERCENT INHIBITION ([3]; 0.05 mg/kg i.v., rechallenge at one minute): 19%

Kb [1]: 5.5 nM
IC50 [2]: 7100 nM
Compound: CCCCCCCCCCCCC/C=C\C(SCCCC(=O)O)[C@]1(O)CC[C@H](C(=O)O)CC1 (relative stereo) [Example 10J, [1α,4β,4(Z)]-4-[1-[(3-carboxypropyl)thio]-2-hexadecenyl]-4-hydroxycyclohexanecarboxylic acid]
PERCENT INHIBITION ([3]; 0.5 mg/kg i.d., greater of results at 5 and 20 minutes): 48%
PERCENT INHIBITION [3, 4]: 53%

Kb [1]: 2.69 nM
IC50 [2]: 8000 nM
Compound: CCCCCCCCCCCCC/C=C\C(SCCC(=O)NCC(=O)O)[C@]1(O)CC[C@H](C(=O)O)CC1 (relative stereo) [Example 10L, [1α,4β,4(Z)]-4-[1-[[3-[(carboxymethyl)amino]-3oxopropyl]thio]-2-hexadecenyl]-4-hydroxycyclohexanecarboxylic acid]
PERCENT INHIBITION ([3]; 0.5 mg/kg i.v., rechallenge at one minute): 74%
PERCENT INHIBITION [3, 4]: 25%

Kb [1]: 0.158 nM
Compound: CCCCCCCCCCCCC/C=C\[C@@H](SCC(=O)O)[C@]1(O)CC[C@H](C(=O)O)CC1 [Example 10D, [4(R)-[1α,4β,4(Z)]]-4-[1-[(carboxymethyl)thio]-2-hexadecenyl]-4-hydroxycyclohexanecarboxylic acid]

Kb [1]: 0.38 nM
Compound: CCCCCCCCCCCCC/C=C\[C@@H](SCCC(=O)O)[C@]1(O)CC[C@H](C(=O)O)CC1 [Example 10F]
PERCENT INHIBITION ([3]; 0.0002 mg/kg i.v., rechallenge at one minute): 38%
PERCENT INHIBITION ([3]; 0.002 mg/kg i.v., rechallenge at one minute): 52%
PERCENT INHIBITION ([3]; 0.02 mg/kg i.v., rechallenge at one minute): 94%
PERCENT INHIBITION ([3]; 0.1 mg/kg i.d., greater of results at 5 and 20 minutes): 74%
PERCENT INHIBITION ([3]; 0.2 mg/kg i.d., greater of results at 5 and 20 minutes): 93%

G.P. ILEUM pA2 (LTD4) [1]: 7.87
Compound: CCCCCCCCCCCCCC=CC(SCCC(=O)O)C1(O)CCC(C(=O)O)CC1 (stereo not drawn) [Example 11, [1α,4β,4(E)]-4-[1-[(2-carboxyethyl)thio-2hexadecenyl]-4-hydroxycyclohexanecarboxylic acid]
